Laboratory results from article PMC6751662, “Pharmacological and functional similarities of the human neuropeptide Y system in C. elegans challenges phylogenetic views on the FLP/NPR system” (Cell Communication and Signaling : CCS, 2019).

Key:
Y4R = target: T1, Y4R (Homo sapiens, UniProt P50391); assay: IP accumulation assay, chimeric GαΔ6qi4myr, Y4R; type: cell-based; conditions: chimeric GαΔ6qi4myr co-transfected, transiently transfected HEK293 cells, mean of at least three independent experiments
T1 construct: expressed in transfected cells; host or cells: HEK293, transient
Method: (§1) For measuring IP accumulation, HEK293 cells grown to 70–80% confluency in 6-well plates were transiently co-transfected using Metafectene Pro (2.5 μl/μg DNA; Biontex) with plasmids containing receptor and/or mock (empty pcDNA3.1) (for endogenous Gq-coupling) using 4 μg total DNA in a ratio of 3:1 following the manufacturer’s instructions. For testing Gα16- and GαΔ6qi4myr-coupling, plasmids encoding the corresponding Gα protein were co-transfected instead of mock. Gα16 is naturally promiscuous and stimulates the phospholipase C (PLC) pathway leading to IP production, while the exchange of the C-terminal four amino acids of Gαq for the corresponding residues of Gαi1 in the chimeric GαΔ6qi4myr confers the ability to couple to Gi/o protein-preferring receptors but still stimulate PLC, thus specifically redirecting downstream cellular signaling. 16 h post transfection, the cells were seeded into white 384-well plates at a density of 20,000 cells/well. Media was removed 24 h later and the cells were incubated with the indicated concentration of peptides for 1 h in HBSS + 20 mM LiCl. IP accumulation was measured with the HTRF-based IP-One Gq kit (Cisbio) on a microplate reader (Tecan Spark).
(§2) For in vitro activation, data is presented as mean ± SEM of at least three independent experiments conducted in technical triplicate. […] For the C. elegans NPRs, we considered the strongest response elicited by any of the peptides downstream of a particular receptor as the receptor’s maximal signal. This may or may not be the biological maximum that can be reached by the ‘true’ endogenous agonist. For the human receptors, the response to the established endogenous agonist reflected the maximal signal.

NPR-6 = assay: cAMP reporter gene assay, Gi/o (inhibition of forskolin-induced cAMP), NPR-6; type: cell-based, C. elegans; conditions: 1 µM forskolin set to 1.00, transiently transfected HEK293 cells, mean of at least three independent experiments
Method: (§3) Activation of Gs and Gi/o was assessed with a cAMP reporter gene assay. HEK293 cells grown to 70–80% confluency in 6-well plates were transiently co-transfected with vectors encoding the receptor and the cAMP reporter gene plasmid pGL4.29 [luc2P/CRE/Hygro] (Promega; 4 μg total, 1:1 ratio) using Metafectene Pro (3 μl/μg DNA; Biontex) following the manufacturer’s instructions. 16 h post transfection, the cells were seeded into white 384-well plates at a density of 20,000 cells/well. On the next day, the medium was removed and the cells were stimulated with 20 μl of peptide solution (or forskolin as positive control) in serum-free DMEM for 4 h. For measuring Gi/o activity, the peptide solutions additionally contained 1 μM forskolin to elevate cellular cAMP levels. After incubation, the luciferase substrate OneGlo in lysis buffer (Promega) was added and the luminescence was measured in a microplate reader Tecan Spark (Tecan). Data were analyzed with GraphPad Prism 5.03 and are shown as fold of basal or fold of forskolin in case of Gαi/o activity.
as §2

NPR-5b = target: T2, NPR-5b (Caenorhabditis elegans, UniProt Q6F3C9); assay: cAMP reporter gene assay, Gi/o (with forskolin), NPR-5b; type: cell-based, C. elegans; conditions: 1 µM forskolin set to 1.00, values > 1 = cAMP stimulation, transiently transfected HEK293 cells, mean of at least three independent experiments
T2 sequence (Q6F3C9 1-433): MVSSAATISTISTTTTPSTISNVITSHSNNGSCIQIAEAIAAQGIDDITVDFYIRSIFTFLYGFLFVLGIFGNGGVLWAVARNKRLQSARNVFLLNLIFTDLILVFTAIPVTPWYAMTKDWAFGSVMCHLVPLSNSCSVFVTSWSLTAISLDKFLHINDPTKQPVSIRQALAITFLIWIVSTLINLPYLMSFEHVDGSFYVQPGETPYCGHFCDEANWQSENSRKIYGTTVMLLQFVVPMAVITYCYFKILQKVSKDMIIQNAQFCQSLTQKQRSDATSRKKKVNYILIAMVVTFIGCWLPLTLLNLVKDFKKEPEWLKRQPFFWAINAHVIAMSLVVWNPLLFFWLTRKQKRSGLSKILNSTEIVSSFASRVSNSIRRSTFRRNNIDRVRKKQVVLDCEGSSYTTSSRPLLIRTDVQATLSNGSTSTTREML
Method: as §3, with “(Tecan).” for “(Tecan). Data were analyzed with GraphPad Prism 5.03 and are shown as fold of basal or fold of forskolin in case of Gαi/o activity.”
as §2

Y5R = target: T3, Y5R (Homo sapiens, UniProt Q15761); assay: IP accumulation assay, chimeric GαΔ6qi4myr, Y5R; type: cell-based; conditions: chimeric GαΔ6qi4myr co-transfected, transiently transfected HEK293 cells, mean of at least three independent experiments
T3 construct: expressed in transfected cells; host or cells: HEK293, transient
T3 sequence (Q15761 1-445): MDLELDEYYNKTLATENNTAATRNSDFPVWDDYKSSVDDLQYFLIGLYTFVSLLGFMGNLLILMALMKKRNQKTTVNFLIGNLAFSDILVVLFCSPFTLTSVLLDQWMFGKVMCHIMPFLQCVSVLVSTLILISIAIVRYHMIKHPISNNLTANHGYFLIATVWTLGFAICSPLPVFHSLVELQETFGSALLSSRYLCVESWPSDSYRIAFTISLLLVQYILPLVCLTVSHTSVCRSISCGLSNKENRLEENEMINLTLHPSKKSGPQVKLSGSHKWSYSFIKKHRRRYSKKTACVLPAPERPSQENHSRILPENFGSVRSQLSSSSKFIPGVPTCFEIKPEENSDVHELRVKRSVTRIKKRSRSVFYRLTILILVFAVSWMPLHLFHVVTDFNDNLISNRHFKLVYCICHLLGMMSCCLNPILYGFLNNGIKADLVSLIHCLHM
Method: as §1, §2

T1 sequence (P50391 whole entry): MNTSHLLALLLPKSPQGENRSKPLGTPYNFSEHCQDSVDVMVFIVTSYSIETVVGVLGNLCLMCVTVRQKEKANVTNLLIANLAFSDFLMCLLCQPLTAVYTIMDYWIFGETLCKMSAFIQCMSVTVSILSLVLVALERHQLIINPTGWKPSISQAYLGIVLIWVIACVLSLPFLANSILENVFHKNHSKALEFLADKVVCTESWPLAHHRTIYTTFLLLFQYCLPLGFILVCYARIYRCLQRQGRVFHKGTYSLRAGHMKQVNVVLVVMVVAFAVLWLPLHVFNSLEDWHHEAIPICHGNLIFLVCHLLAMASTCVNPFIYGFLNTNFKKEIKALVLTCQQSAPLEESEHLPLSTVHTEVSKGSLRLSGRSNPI

Row | Substance | IP accumulation, x-fold of basal (mean), Y4R (Y4R; 0.1 µM peptide) | IP accumulation, x-fold of basal (mean), Y4R (Y4R; 10 µM peptide) | cAMP, x-fold of forskolin (mean), NPR-6 (NPR-6; 0.1 µM peptide) | cAMP, x-fold of forskolin (mean), NPR-6 (NPR-6; 10 µM peptide) | cAMP, x-fold of forskolin (mean), NPR-5b (NPR-5b; 0.1 µM peptide) | cAMP, x-fold of forskolin (mean), NPR-5b (NPR-5b; 10 µM peptide) | IP accumulation, x-fold of basal (mean), Y5R (Y5R; 0.1 µM peptide) | IP accumulation, x-fold of basal (mean), Y5R (Y5R; 10 µM peptide)
1 | NPENDTPFGTMRF-NH2 [FLP-3-4, C. elegans FMRFamide-like peptide, C-terminally amidated, synthesized by SPPS] | 1.31 x-fold of basal | 1.29 x-fold of basal | 0.85 x-fold of forskolin | 0.26 x-fold of forskolin | 1.10 x-fold of forskolin | 3.95 x-fold of forskolin | 0.67 x-fold of basal | 1.41 x-fold of basal
2 | PrRP31 [reference compound] | 0.84 x-fold of basal | 1.10 x-fold of basal | 0.96 x-fold of forskolin | 1.25 x-fold of forskolin | 0.91 x-fold of forskolin | 1.10 x-fold of forskolin | 0.70 x-fold of basal | 9.64 x-fold of basal
3 | TPDINPAWYASRGIRPVGRF-NH2 [PrRP20, human prolactin-releasing peptide, 20 residues, reference compound] | 0.80 x-fold of basal | 0.89 x-fold of basal | 0.96 x-fold of forskolin | 1.19 x-fold of forskolin | 0.90 x-fold of forskolin | 1.05 x-fold of forskolin | 1.01 x-fold of basal | 5.90 x-fold of basal
4 | TSGPLGNLAEELNGYSRKKGGFSFRF-NH2 [QRFP26, human pyroglutamylated RFamide peptide, 26 residues, reference compound] | 1.03 x-fold of basal | 1.42 x-fold of basal | 0.97 x-fold of forskolin | 0.93 x-fold of forskolin | 0.84 x-fold of forskolin | 2.19 x-fold of forskolin | 0.87 x-fold of basal | 3.57 x-fold of basal
